Reference: patent publication US20080194646A1, “Methods For Avoiding Edema in the Treatment of Metabolic, Inflammatory, and Cardiovascular Disorders” (priority 2005, published 2008)

System: C57BL/6j ob/ob Mice
Experiment: anti-diabetic activity in C57BL/6j ob/ob mice (Example 20)
Format: in vivo
Conditions: oral gavage once a day for 1-4 days; for Potency: glucose lowering, plasma glucose 6 hours after each dose
Method: The anti-diabetic activities of the compounds were evaluated in the C57BL/6j ob/ob Mice model. Male, 7-9 weeks old, C57BL/6J ob/ob mice were purchased from The Jackson Laboratory (Bar Harbor, Me., USA). Animals were housed (4-5 mice/cage) under standard laboratory conditions at 22±3° C. temperature and 50±20% relative humidity, and were maintained on a diet of Purina rodent chow and water ad libitum. Prior to treatment, blood was collected from the tail vein of each animal. Mice that had non-fasting plasma glucose levels between 250 and 500 mg/dl were used. Each treatment group consisted of 8-10 mice that were distributed so that the mean glucose levels were equivalent in each group at the start of the study. Mice were dosed orally by gavage once a day for 1-4 days with vehicle and one or more dose of test compound at a dose ranging from 5 to 125 mg/kg. Compounds were delivered in a liquid formulation containing 5% (v/v) dimethyl sulfoxide (DMSO), 1% (v/v) Tween 80® and 0.9% (w/v) methylcellulose. The gavage volume was 10 ml/kg. […] Food intake and body weight were measured daily. Plasma glucose concentrations were determined colorimetrically using a commercial glucose oxidase method (Sigma Chemical Co, St. Louis, Mo., USA). Significant difference between groups (comparing drug-treated to vehicle-treated) was evaluated using the Student unpaired t-test. Table 1 provides the relative potency of some selected compounds of the invention.

Compound | Potency | Insulin Level compared with vehicle
O=C(O)C(Oc1ccc(C(F)(F)F)cc1)c1cccc(C(F)(F)F)c1 (stereo not drawn) [(−)−39, (4-trifluoromethyl-phenoxy)-(3-trifluoromethyl-phenyl)-acetic acid] | ++ (effective for glucose lowering at the dose of ≦125 mg/kg) | Lower
O=C(O)C(Oc1cc(C(F)(F)F)cc(C(F)(F)F)c1)c1ccc(C(F)(F)F)cc1 (stereo not shown) [Compound 81] | – | Lower
O=C(O)C(Oc1ccc(C(F)(F)F)cc1)c1ccc(C(F)(F)F)cc1 (stereo not shown) [Compound 83] | ++ (effective for glucose lowering at the dose of ≦125 mg/kg) | Lower
O=C(O)C(Oc1ccc(C(F)(F)F)cc1Cl)c1cccc(C(F)(F)F)c1 (stereo not shown) [Compound 85] | ++ (effective for glucose lowering at the dose of ≦125 mg/kg) | Lower
O=C(O)C(Oc1cccc(C(F)(F)F)c1)c1ccc(C(F)(F)F)cc1 (stereo not shown) [Compound 86] | – | Lower
O=C(O)C(Oc1ccc(C(F)(F)F)cc1Cl)c1ccc(C(F)(F)F)cc1 (stereo not shown) [Compound 89] | ++ (effective for glucose lowering at the dose of ≦125 mg/kg) | Lower
O=C(O)C(Oc1ccc(C(F)(F)F)cn1)c1cccc(C(F)(F)F)c1 (stereo not shown) [Compound 100, (3-Trifluoromethyl-phenyl)-(5-trifluoromethyl-pyridin-2-yloxy)-acetic acid] | – | Lower
CC(Oc1ccc(C(F)(F)F)cc1)(C(=O)O)c1cccc(C(F)(F)F)c1 (stereo not shown) [Compound 120, 2-(4-trifluoromethyl-phenoxy)-2-(3-trifluoromethyl-phenyl)-propionic acid] | – | Lower
CC(Oc1ccc(C(F)(F)F)cc1)(C(=O)O)c1ccc(C(F)(F)F)cc1 (stereo not shown) [Compound 121, 2-(4-Trifluoromethyl-phenoxy)-2-(4-trifluoromethyl-phenyl)-propionic acid] | – | Lower
OCC(Oc1ccc(C(F)(F)F)cc1)c1ccc(C(F)(F)F)cc1 (stereo not shown) [Compound 128] | ++ (effective for glucose lowering at the dose of ≦125 mg/kg) | Lower
CC(=O)NCCOC(=O)C(Oc1ccc(C(F)(F)F)cc1)c1cccc(C(F)(F)F)c1 (stereo not shown) [Compound 136, (4-trifluoromethyl-phenoxy)-(3-trifluoromethyl-phenyl)-acetic acid 2-acetylamino-ethyl ester] | – | Lower
CC(=O)NCCOC(=O)C(Oc1cccc(C(F)(F)F)c1)c1ccc(C(F)(F)F)cc1 (stereo not shown) [Compound 142] | – | Lower
CC(=O)NCCOC(=O)C(Oc1cc(C(F)(F)F)cc(C(F)(F)F)c1)c1ccc(C(F)(F)F)cc1 (stereo not shown) [Compound 143] | – | Lower
CC(=O)NCCOC(=O)C(Oc1cccc(C(F)(F)F)c1)c1cccc(C(F)(F)F)c1 (stereo not shown) [Compound 144] | – | Lower
